Tested on: normal human epidermal keratinocytes (NHEK)
Experiment: Affymetrix gene array analysis, autoantigen gene expression
Assay type: cell-based
Method: The gene array experiment was performed at the Core Facility of Genomics of the Medical College of Georgia, according to the instructions of the manufacturer (Affymetrix, Santa Clara, Calif.). Briefly, NHEK and OSC2 cells treated with 100 μM EGCG for different time period were extracted for total RNA, the RNA was processed for probes and hybridized with a cDNA microarray (HuG133A, Affymetrix) which represents 22,283 human series. DNA chips were read with a Hewlett-Packard GeneArray Scanner at a resolution of […] and were analyzed with the GeneSpring software (Silicon Genetics, Redwood City, Calif.). Details of this analysis will be published elsewhere (Hsu et al., manuscript in preparation).
Gene assays provide a valuable tool for studying the broad response of cells to agents, and we have used this approach to compare the differential effects of GTPP on gene expression in NHEK and human oral squamous carcinoma cells (Hsu, et al, manuscript in preparation). […] See also Hsu, S. et al. (2005) JPET 315:805-811, which is incorporated by reference in its entirety.

What does the source list for `O=C(O[C@@H]1Cc2c(O)cc(O)cc2O[C@@H]1c1cc(O)c(O)c(O)c1)c1cc(O)c(O)c(O)c1` [EGCG, (−)-epigallocatechin-3-gallate]?
Ku autoantigen, 80 kDa (208642_s_at) expression, normalized (24 h, 100 μM): 0.73; Ku autoantigen, 80 kDa (208643_s_at) expression, normalized (24 h, 100 μM): 0.77; Nuclear antigen SP100 (202863_at) expression, normalized (24 h, 100 μM): 0.36; Nuclear antigen SP100 (202864_s_at) expression, normalized (24 h, 100 μM): 0.08; Nuclear antigen SP10075 kDa (213226_at) expression, normalized (24 h, 100 μM): 0.50; RNA polymerase 1 (202692_s-at) expression, normalized (24 h, 100 μM): 0.55; SS-B/La (201138_s_at) expression, normalized (24 h, 100 μM): 0.27; SS-B/La (201139_s_at) expression, normalized (24 h, 100 μM): 0.26; centromere protein C1 (20473_at) expression, normalized (24 h, 100 μM): 0.94; coilin (203653_s_at) expression, normalized (24 h, 100 μM): 0.79; coilin (203654_s_at) expression, normalized (24 h, 100 μM): 0.79; fodrin-α (208611_s_at) expression, normalized (24 h, 100 μM): 0.42; fodrin-α (215235_s_at) expression, normalized (24 h, 100 μM): 0.71; golgin-67 (208797_s_at) expression, normalized (24 h, 100 μM): 0.29; golgin-67 (208798_x_at) expression, normalized (24 h, 100 μM): 0.31; golgin-67 (210425_x_at) expression, normalized (24 h, 100 μM): 0.31; golgin-67 (213650_at) expression, normalized (24 h, 100 μM): 0.72; scleroderma autoantigen 1, 75 kDa (213226_at) expression, normalized (24 h, 100 μM): 0.50; spectrin-β non-erythrocyctic 1 (212071_s_at) expression, normalized (24 h, 100 μM): 0.72; thyroid autoantigen 70 kDa (Ku antigen) (200792_at) expression, normalized (24 h, 100 μM): 0.79; ADPRT [poly(ADP)-ribose polymerase] expression (24 h, 100 μM, vs time zero): 0.85 fold; ANAP12 expression (24 h, 100 μM, vs time zero): 0.198 fold; ANXA11 expression (24 h, 100 μM, vs time zero): 1.946 fold; CALR expression (24 h, 100 μM, vs time zero): 1.528 fold; CBARA1 expression (24 h, 100 μM, vs time zero): 0.721 fold; CENPA expression (24 h, 100 μM, vs time zero): 0.673 fold; CENPB expression (24 h, 100 μM, vs time zero): 0.721 fold; CENPC1 expression (24 h, 100 μM, vs time zero): 0.936 fold; CHD4 expression (24 h, 100 μM, vs time zero): 0.84 fold; COL17A1 expression (24 h, 100 μM, vs time zero): 0.684 fold; CTDSP1 expression (24 h, 100 μM, vs time zero): 1.39 fold; CTDSP2 expression (24 h, 100 μM, vs time zero): 1.71 fold; CTDSPL expression (24 h, 100 μM, vs time zero): 2.10 fold; DLAT expression (24 h, 100 μM, vs time zero): 0.751 fold; EPPK1 expression (24 h, 100 μM, vs time zero): 0.889 fold; FBL expression (24 h, 100 μM, vs time zero): 0.69 fold; FLJ31657 expression (24 h, 100 μM, vs time zero): 0.959 fold; FLNB (Filamin B, β) expression (24 h, 100 μM, vs time zero): 0.249 fold; FLNB (Filamin B, γ) expression (24 h, 100 μM, vs time zero): 0.243 fold; G22P1 (Thyroid autoantigen, 70 kDa, Ku antigen) expression (24 h, 100 μM, vs time zero): 0.792 fold; GMEB2 expression (24 h, 100 μM, vs time zero): 0.745 fold; GOLGA1 expression (24 h, 100 μM, vs time zero): 0.9 fold; GOLGA2 expression (24 h, 100 μM, vs time zero): 0.949 fold; GOLGA3 expression (24 h, 100 μM, vs time zero): 0.419 fold; GOLGA4 expression (24 h, 100 μM, vs time zero): 0.664 fold; GOLGA5 expression (24 h, 100 μM, vs time zero): 1.494 fold; GOLGB1 expression (24 h, 100 μM, vs time zero): 0.688 fold; HARS expression (24 h, 100 μM, vs time zero): 0.72 fold; HARSL expression (24 h, 100 μM, vs time zero): 1.00 fold; HSA6591 expression (24 h, 100 μM, vs time zero): 0.562 fold; HUMAUANTIG expression (24 h, 100 μM, vs time zero): 0.517 fold; IMP-2 expression (24 h, 100 μM, vs time zero): 0.665 fold; LAD1 expression (24 h, 100 μM, vs time zero): 0.553 fold; LMO4 expression (repeat 1) (24 h, 100 μM, vs time zero): 1.011 fold; LMO4 expression (repeat 2) (24 h, 100 μM, vs time zero): 0.659 fold; MGC5560 expression (repeat 1) (24 h, 100 μM, vs time zero): 0.81 fold; MGC5560 expression (repeat 2) (24 h, 100 μM, vs time zero): 0.552 fold; NS (Nucleostemin) expression (24 h, 100 μM, vs time zero): 0.814 fold; PDHB expression (24 h, 100 μM, vs time zero): 0.818 fold; PDX1 expression (24 h, 100 μM, vs time zero): 0.903 fold; PMSCL1, 75 kDa expression (24 h, 100 μM, vs time zero): 0.496 fold; PMSCL2 expression (24 h, 100 μM, vs time zero): 0.717 fold; POLR1B expression (24 h, 100 μM, vs time zero): 1.04 fold; POLR1D expression (24 h, 100 μM, vs time zero): 1.31 fold; POLR2A expression (repeat 1) (24 h, 100 μM, vs time zero): 1.02 fold; POLR2A expression (repeat 2) (24 h, 100 μM, vs time zero): 1.17 fold; POLR2B expression (24 h, 100 μM, vs time zero): 0.74 fold; POLR2C expression (24 h, 100 μM, vs time zero): 1.66 fold; POLR2D expression (24 h, 100 μM, vs time zero): 0.29 fold; POLR2E expression (24 h, 100 μM, vs time zero): 0.39 fold; POLR2F expression (24 h, 100 μM, vs time zero): 0.80 fold; POLR2G expression (24 h, 100 μM, vs time zero): 0.89 fold; POLR2H expression (24 h, 100 μM, vs time zero): 1.15 fold; POLR3C expression (24 h, 100 μM, vs time zero): 0.49 fold; POLR3G expression (24 h, 100 μM, vs time zero): 0.47 fold; PSME3 expression (24 h, 100 μM, vs time zero): 0.421 fold; RALY expression (24 h, 100 μM, vs time zero): 0.612 fold; SART1 expression (24 h, 100 μM, vs time zero): 0.98 fold; SLC25A16 expression (24 h, 100 μM, vs time zero): 1.144 fold; SNRP70 expression (24 h, 100 μM, vs time zero): 0.51 fold; SNRPA expression (24 h, 100 μM, vs time zero): 0.32 fold; SNRPB2 expression (24 h, 100 μM, vs time zero): 0.82 fold; SNRPB expression (repeat 1) (24 h, 100 μM, vs time zero): 0.52 fold; SNRPB expression (repeat 2) (24 h, 100 μM, vs time zero): 0.42 fold; SNRPC expression (24 h, 100 μM, vs time zero): 1.12 fold; SNRPD1 expression (repeat 1) (24 h, 100 μM, vs time zero): 0.425 fold; SNRPD1 expression (repeat 2) (24 h, 100 μM, vs time zero): 0.517 fold; SOX13 expression (24 h, 100 μM, vs time zero): 1.582 fold; SP100 expression (repeat 1) (24 h, 100 μM, vs time zero): 0.356 fold; SP100 expression (repeat 2) (24 h, 100 μM, vs time zero): 0.079 fold; SP110 expression (repeat 1) (24 h, 100 μM, vs time zero): 0.978 fold; SP110 expression (repeat 2) (24 h, 100 μM, vs time zero): 0.654 fold; SP110 expression (repeat 3) (24 h, 100 μM, vs time zero): 0.621 fold; SPTAN1 (α-fodrin) expression (repeat 1) (24 h, 100 μM, vs time zero): 0.42 fold; SPTAN1 (α-fodrin) expression (repeat 2) (24 h, 100 μM, vs time zero): 0.71 fold; SPTBN expression (24 h, 100 μM, vs time zero): 0.72 fold; SSA2 (autoantigen SS-A/Ro) expression (repeat 2) (24 h, 100 μM, vs time zero): 0.88 fold; SSA2 expression (repeat 1) (24 h, 100 μM, vs time zero): 1.17 fold; SSA2 expression (repeat 3) (24 h, 100 μM, vs time zero): 1.556 fold; SSA2 expression (repeat 4) (24 h, 100 μM, vs time zero): 0.94 fold; SSB (autoantigen La) expression (repeat 1) (24 h, 100 μM, vs time zero): 0.273 fold; SSB (autoantigen La) expression (repeat 2) (24 h, 100 μM, vs time zero): 0.257 fold; SSNA1 expression (24 h, 100 μM, vs time zero): 0.943 fold; SSSCA1 expression (24 h, 100 μM, vs time zero): 1.228 fold; STRN3 expression (24 h, 100 μM, vs time zero): 0.759 fold; TOP1 expression (repeat 1) (24 h, 100 μM, vs time zero): 0.12 fold; TOP1 expression (repeat 2) (24 h, 100 μM, vs time zero): 0.43 fold; UBTF expression (24 h, 100 μM, vs time zero): 0.546 fold; XRCC5 (Ku autoantigen, 80 kDa) expression (repeat 1) (24 h, 100 μM, vs time zero): 0.771 fold; XRCC5 (Ku autoantigen, 80 kDa) expression (repeat 2) (24 h, 100 μM, vs time zero): 0.725 fold; dJ963E22.1 expression (24 h, 100 μM, vs time zero): 0.88 fold; α-NAC expression (24 h, 100 μM, vs time zero): 0.469 fold; rapid initial increase of nuclear antigen SP100 and scleroderma autoantigen 1 mRNA (followed by a 2-fold or greater decrease): 2-4 fold; decrease in mRNA levels of RNA polymerase I, SS-B/La, alpha-fodrin and golgin-67 (rapid (0.5-2 hr initiation) and persistent during the 24 hr period): ≥ 2 fold; 60 kDa SS-A/Ro mRNA level (time course up to 24 hr): did not decline significantly
